Measurements taken from patent US20020026053A1, “Novel 3-(substituted) -2- indolinones compounds and use thereof as inhibitors of protein kinase activity” (priority 1997, published 2002).

Molecular target: T1, EGFR (Homo sapiens, UniProt P00533)
T1 construct: endogenous in cells; host or cells: A431 cells (lysate, captured with SUMO1 anti-EGFR antibody)
Assay: Biochemical EGFR Assay
Parameters: concentration or dose not given beside the values
Details: protocol P.167
Outline: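 EGFR from A431 lysate was captured on anti-EGFR-coated wells and preincubated 30 min with compound (diluted 1:10 in TBS) at room temperature. After ATP/MnCl2 phosphorylation for 5 min, the reaction was stopped with EDTA. Phosphotyrosine was detected by ELISA (anti-phosphotyrosine, peroxidase conjugate, ABTS) at 410 nm.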

T1 sequence (P00533 25-1210): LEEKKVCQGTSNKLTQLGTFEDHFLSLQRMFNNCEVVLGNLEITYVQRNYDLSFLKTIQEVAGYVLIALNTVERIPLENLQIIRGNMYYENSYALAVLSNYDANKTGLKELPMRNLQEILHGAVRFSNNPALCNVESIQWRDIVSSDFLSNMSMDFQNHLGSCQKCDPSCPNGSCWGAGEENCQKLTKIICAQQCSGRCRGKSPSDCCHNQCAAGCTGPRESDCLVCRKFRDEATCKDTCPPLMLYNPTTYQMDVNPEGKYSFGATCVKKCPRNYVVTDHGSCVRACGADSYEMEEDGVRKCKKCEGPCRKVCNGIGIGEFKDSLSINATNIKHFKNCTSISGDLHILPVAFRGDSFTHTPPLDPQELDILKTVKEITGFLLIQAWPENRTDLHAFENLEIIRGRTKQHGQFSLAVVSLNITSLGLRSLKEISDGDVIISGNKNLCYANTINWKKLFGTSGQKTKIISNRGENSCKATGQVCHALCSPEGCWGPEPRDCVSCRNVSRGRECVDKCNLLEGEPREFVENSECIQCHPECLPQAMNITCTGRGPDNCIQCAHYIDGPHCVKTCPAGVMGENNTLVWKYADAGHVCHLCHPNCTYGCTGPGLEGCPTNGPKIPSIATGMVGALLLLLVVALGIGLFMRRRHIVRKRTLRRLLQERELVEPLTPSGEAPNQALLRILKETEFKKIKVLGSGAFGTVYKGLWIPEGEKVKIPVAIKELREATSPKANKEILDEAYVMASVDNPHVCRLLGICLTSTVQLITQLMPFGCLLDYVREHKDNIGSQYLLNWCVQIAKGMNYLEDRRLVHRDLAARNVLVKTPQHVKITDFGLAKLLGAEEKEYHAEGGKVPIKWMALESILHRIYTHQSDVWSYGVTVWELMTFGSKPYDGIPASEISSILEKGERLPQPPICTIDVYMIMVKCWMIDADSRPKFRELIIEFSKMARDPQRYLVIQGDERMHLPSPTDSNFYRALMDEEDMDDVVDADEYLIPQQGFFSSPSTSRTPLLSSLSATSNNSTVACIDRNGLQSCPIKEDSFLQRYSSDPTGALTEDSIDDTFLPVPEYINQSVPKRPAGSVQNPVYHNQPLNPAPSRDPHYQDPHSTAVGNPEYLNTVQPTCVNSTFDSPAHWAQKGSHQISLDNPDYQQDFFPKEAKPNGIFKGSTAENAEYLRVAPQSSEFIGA

| Structure (SMILES) | Biochem EGFR % Inhibition (P.167) [%] |
| --- | --- |
| O=C1Nc2ccc(CCCl)cc2C1=Cc1ccccc1F [10736/G08] | −9.2 |
| CCc1ccc(C=C2C(=O)Nc3ccc(CCCl)cc32)cc1 [10736/G09] | 12.4 |
| COc1cccc(C=C2C(=O)Nc3ccc(CCCl)cc32)c1 [10736/G10] | −4.5 |
| O=C1Nc2ccc(CCCl)cc2C1=Cc1ccccc1Cl [10736/G11] | −6.4 |
| Cc1c(Br)cc(Br)c2c1C(=Cc1ccc(Cl)cc1)C(=O)N2 [10736/H02] | −32.0 |
| Cc1c(Br)cc(Br)c2c1C(=Cc1ccccc1C(F)(F)F)C(=O)N2 [10736/H03] | −1.4 |
| Cc1cccc(C=C2C(=O)Nc3c(Br)cc(Br)c(C)c32)c1 [10736/H04] | −4.3 |
| Cc1ccc(C=C2C(=O)Nc3c(Br)cc(Br)c(C)c32)cc1 [10736/H05] | −28.9 |
| Cc1c(Br)cc(Br)c2c1C(=Cc1cccc(Cl)c1)C(=O)N2 [10736/H06] | 12.6 |
